Assays:
[1] = target: T1, androgen receptor (AR) (Homo sapiens, UniProt P10275); assay: Antagonism of compounds on nuclear translocation of androgen receptor (PathHunter NHR cell lines); type: cell-based; details: antagonist mode, agonist 6a-Fluorotestosterone 0.06 μM (EC80)
T1 sequence (P10275 1-920): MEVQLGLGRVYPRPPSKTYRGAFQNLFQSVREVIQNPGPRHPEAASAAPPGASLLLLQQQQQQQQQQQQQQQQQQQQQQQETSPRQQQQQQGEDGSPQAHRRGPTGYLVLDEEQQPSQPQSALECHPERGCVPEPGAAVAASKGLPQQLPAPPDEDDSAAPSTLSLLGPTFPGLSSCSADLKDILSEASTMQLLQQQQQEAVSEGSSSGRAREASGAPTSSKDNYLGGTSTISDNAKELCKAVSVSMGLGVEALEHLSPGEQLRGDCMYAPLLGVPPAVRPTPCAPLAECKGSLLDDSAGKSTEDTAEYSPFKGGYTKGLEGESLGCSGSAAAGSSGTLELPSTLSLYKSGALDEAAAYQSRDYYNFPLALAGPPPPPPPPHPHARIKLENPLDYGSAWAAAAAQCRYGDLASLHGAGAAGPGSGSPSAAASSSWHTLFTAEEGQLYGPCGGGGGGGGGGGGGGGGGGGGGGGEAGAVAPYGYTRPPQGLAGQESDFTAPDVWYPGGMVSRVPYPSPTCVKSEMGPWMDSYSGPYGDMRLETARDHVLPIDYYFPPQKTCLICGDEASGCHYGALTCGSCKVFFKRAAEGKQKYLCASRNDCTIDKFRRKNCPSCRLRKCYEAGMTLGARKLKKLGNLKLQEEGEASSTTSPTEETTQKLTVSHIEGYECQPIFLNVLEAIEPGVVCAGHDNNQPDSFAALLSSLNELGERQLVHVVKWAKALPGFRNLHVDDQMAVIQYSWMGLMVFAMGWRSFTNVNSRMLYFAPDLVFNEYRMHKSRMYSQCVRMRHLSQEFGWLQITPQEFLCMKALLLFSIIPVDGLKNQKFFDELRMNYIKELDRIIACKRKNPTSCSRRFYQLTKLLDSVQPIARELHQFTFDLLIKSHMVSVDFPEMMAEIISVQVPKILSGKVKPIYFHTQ
Method: Example 75 Test of Antagonism of Compounds on Nuclear Translocation of Androgen Receptor (AR)
1. PathHunter NHR cell lines were recovered and cultured for amplification.
2. The cells were inoculated onto a 384-well plate prior to testing, and incubated at 37° C. The serum for culture was filtered with charcoal-dextran to reduce the hormone level therein.
3. In the detection of the antagonistic function, a compound was added to the cells and incubated for 60 min. The working concentration of the test compound was diluted from 10 μM at a 3-fold concentration gradient, respectively including: […]. Then, an agonist 6a-Fluorotestosterone 0.06 μM (concentration: EC80, i.e., 80% agonistic compound concentration) was added, and the mixture was incubated at 37° C. or at room temperature for 3-16 h.
4. Signal detection: 12.5 μL or 15 μL (50%, v/v) PathHunter detection mixed solution (kit: DiscoverX product catalog number: 93-0001 series) was added, and incubated at room temperature for 1 h. The chemiluminescent signal was read with a PerkinElmer Envision™ instrument.
5. Data analysis: The compound activity was analyzed with CBIS data analysis software (ChemInnovation, CA). The calculation formula of the inhibition percent of the antagonist is as follows: IC50 inhibition ratio (%)=[…]×(1−(average RLU value of the test compound−average RLU value of the blank control group)/(average RLU value of EC80 control group−average RLU value of the blank control group)).

[2] = tested on: Human prostate cancer LNCaP-FGC cells; assay: In vivo pharmacodynamic study on subcutaneous xenograft tumor model of human prostate cancer LNCaP-FGC cells; parameters: species or system CB-17 SCID mice; details: after 21 days of administration, vs solvent control
Method: 2.1 Experimental Animals • Species: Mice • Strain: CB-17 SCID mice • Week age and body weight: 6-8 weeks old, 18-22 g body weight • Gender: male • Supplier: Beijing Vital River Laboratory Animal Technology Co., Ltd • Animal Certificate No.: 11400700184227 3. Experimental Method and Steps 3.1 Cell Culture
Human prostate cancer LNCaP-FGC cells (ATCC, Manassas, Virginia) were cultured in vitro monolayers under the culture conditions of RPM11640 medium supplemented with […] fetal bovine serum at 37° C. with 5% CO2. Routine digestion treatment with trypsin-EDTA was performed twice a week for passage. When the cell saturation was 80%-90%, the cells were collected, counted, and inoculated.
0.2 mL (10×10^6) of LNCaP-FGC cells (10×10^6+Matrigel, 1:1) was inoculated subcutaneously to the right back of each CB-17 SCID mouse. When the average tumor volume reached 100-150 mm^3, administration in groups was started.
The tumor diameters were measured with a vernier caliper twice a week. The calculation formula of the tumor volume is: V=0.5a×b^2, wherein a and b represent the long diameter and the short diameter of the tumor, respectively. The antitumor efficacy of the compounds were evaluated by TGI (%) or a relative tumor proliferation rate T/C (%). TGI(%)=[(1−(average tumor volume of a treatment group at the end of drug administration−average tumor volume of the treatment group at the beginning of drug administration))/(average tumor volume of the vehicle control group at the end of treatment−average tumor volume of the vehicle control group at the beginning of treatment)]×100%. The calculation formula of the relative tumor proliferation rate T/C (%) is as follows: T/C %=TRTV/CRTV×100% (TRTV: RTV of a treatment group; CRTV: RTV of a negative control group). The relative tumor volume (RTV) is calculated based on the tumor measurement results, and the calculation formula is RTV=Vt/V0, wherein V0 is the average tumor volume measured at the time of administration in groups (i.e., do), Vt is the average tumor volume at one measurement, and TRTV and CRTV are the data obtained on the same day.
The statistical analysis includes mean and standard error of mean (SEM) of the tumor volume at each time point for each group. […] The comparison between two groups was analyzed by T-test, and the comparison between three or more groups was analyzed by one-way ANOVA. If there was a significant difference in the F value, the Games-Howell method was used for testing. If there was no significant difference in the F value, the Dunnet (2-sided) method was used for analysis. All data analysis was performed by using SPSS 17.0. “p<0.05” was considered a significant difference.

| SMILES | IC50 [1] | TGI ([2]; 10 mg/kg PO QD) | relative tumor proliferation rate T/C ([2]; 10 mg/kg PO QD) | TGI ([2]; 20 mg/kg PO QD) | relative tumor proliferation rate T/C ([2]; 20 mg/kg PO QD) | TGI ([2]; 50 mg/kg PO QD) | relative tumor proliferation rate T/C ([2]; 50 mg/kg PO QD) |
| --- | --- | --- | --- | --- | --- | --- | --- |
| CCc1cc(=O)n2cc(N3C(=S)N(c4ccc(C#N)c(Cl)c4)C(=O)C3(C)C)cc(F)c2n1 [Compound 58] | 0.95 µM | 62.75% | 43.93% | 76.16% | 32.37% |  |  |
| CCc1nc(OCCO)c2cc(N3C(=S)N(c4ccc(C#N)c(C(F)(F)F)c4)C(=O)C3(C)C)cc(F)c2n1 [Compound 10] | 1.71 µM |  |  |  |  | 83.0% | 23.8% |
| CCc1cc(=O)n2cc(N3C(=S)N(c4ccc(C#N)c(C(F)(F)F)c4)C(=O)C3(C)C)cc(F)c2n1 [Compound 35] | 2.31 µM | 59.36% | 47.39% | 76.00% | 32.47% |  |  |

Reference: patent US11866433B2, “Diarylthiohydantoin compound as androgen receptor antagonist” (CHIA TAI TIANQING PHARMACEUTICAL GROUP CO., LTD., priority 2017, dated 2024)
